Measured values taken from PMC8695704 (RSC Advances, 2021).

Target: T1, recombinant human S-COMT (Homo sapiens, UniProt P21964)
T1 sequence (P21964 1-221 isoform P21964-2): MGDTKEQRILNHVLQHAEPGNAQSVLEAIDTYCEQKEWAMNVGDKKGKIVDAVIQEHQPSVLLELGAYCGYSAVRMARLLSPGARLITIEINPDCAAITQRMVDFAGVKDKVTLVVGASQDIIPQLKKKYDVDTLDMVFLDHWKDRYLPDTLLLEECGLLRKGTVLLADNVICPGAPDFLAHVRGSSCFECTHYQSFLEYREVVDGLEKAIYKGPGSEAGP
Test: COMT inhibition assay with the fluorescent probe substrate 3-BTD
Assay type: biochemical
Conditions: IC50, 3-BTD as substrate

With O=C(O)[C@H]1O[C@@H](Oc2cc3oc(-c4ccc(O)cc4)cc(=O)c3c(O)c2O)[C@H](O)[C@@H](O)[C@@H]1O [Scutellarin, scutellarin] the IC50 was 0.221 ± 0.032 µM.
COc1c(O)cc(O)c2c(=O)cc(-c3ccccc3)oc12 [Wogonin, wogonin] showed an IC50 of 24.1 ± 4.96 µM.
